Where two headings read alike, the source gives them in different places.

In one experiment the test system is A. baumannii ATCC 19606. Kind of experiment: Broth microdilution MIC, A. baumannii ATCC 19606. The format is cell-based. As to conditions: Acinetobacter baumannii. A digest of the protocol:
(§1)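 Strains are tested by standard CLSI broth microdilution. Log-phase cells, diluted by OD600 to 5×10^5 CFU/mL, meet 2-fold compound series and incubate 16-20 hours at 37° C before the lowest growth-free concentration is recorded.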
(In general: Broth dilution looks for growth in wells or tubes with falling amounts of substance.)

The test system of another experiment is P. aeruginosa PAO1. Kind of experiment: Broth microdilution MIC, P. aeruginosa PAO1. The format is cell-based. As to conditions: Pseudomonas aeruginosa; P. aeruginosa PAO1, broth microdilution; read-out: MIC P. aeruginosa PAO1. A digest of the protocol: as §1
The test system of experiment [1] is P. aeruginosa (ΔmexAB-oprM). Kind of experiment: microbe, parasite or virus in culture. The format is cell-based. As to conditions: Pseudomonas aeruginosa, read-out: MIC P. aeruginosa ΔmexAB-OprM. A digest of the protocol: as §1
The subject of the next experiment is P. aeruginosa ATCC 35151. Kind of experiment: microbe, parasite or virus in culture. As to conditions: Pseudomonas aeruginosa. The format is cell-based. A digest of the protocol: as §1
The next experiment has as its target E. coli PBP1b (Escherichia coli (strain K12), UniProt P02919). As to the kind of experiment: Radioligand competition binding assay with 14C-labeled boronic acid probe, PBP1b. On the technique in general: Displacement assays read how much labelled ligand stays bound in the presence of the test substance.
Setting [2] is: ATCC19606, A. baumannii ATCC 19606, broth microdilution, read-out: MIC A. baumannii ATCC 19606.
Where [3] appears, read: ATCC35151, hyper-permeable P. aeruginosa ATCC 35151, read-out: MIC P. aeruginosa ATCC 35151.

Chain of E. coli PBP1b (P02919 whole entry): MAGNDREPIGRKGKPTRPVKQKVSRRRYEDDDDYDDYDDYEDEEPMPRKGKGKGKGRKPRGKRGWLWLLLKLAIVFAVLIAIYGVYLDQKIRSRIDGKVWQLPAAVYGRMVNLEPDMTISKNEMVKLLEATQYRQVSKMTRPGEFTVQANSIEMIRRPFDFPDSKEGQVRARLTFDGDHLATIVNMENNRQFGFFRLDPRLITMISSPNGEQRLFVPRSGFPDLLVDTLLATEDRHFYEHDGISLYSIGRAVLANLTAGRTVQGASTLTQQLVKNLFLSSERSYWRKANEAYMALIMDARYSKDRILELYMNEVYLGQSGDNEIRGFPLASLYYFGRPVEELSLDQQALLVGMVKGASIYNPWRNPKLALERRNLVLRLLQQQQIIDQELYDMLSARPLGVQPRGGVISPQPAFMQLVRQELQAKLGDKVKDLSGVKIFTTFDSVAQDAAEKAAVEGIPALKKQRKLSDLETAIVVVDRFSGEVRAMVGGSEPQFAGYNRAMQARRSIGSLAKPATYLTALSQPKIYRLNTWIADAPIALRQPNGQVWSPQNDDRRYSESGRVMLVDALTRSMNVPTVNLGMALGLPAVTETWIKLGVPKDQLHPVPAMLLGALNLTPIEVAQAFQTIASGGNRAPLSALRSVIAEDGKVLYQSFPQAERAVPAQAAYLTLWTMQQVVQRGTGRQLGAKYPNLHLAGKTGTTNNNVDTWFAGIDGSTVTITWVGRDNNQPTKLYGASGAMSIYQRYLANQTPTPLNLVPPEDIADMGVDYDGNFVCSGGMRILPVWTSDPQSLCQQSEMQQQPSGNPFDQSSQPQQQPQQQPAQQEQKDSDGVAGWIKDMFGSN

In the case of `CCN1CCN(C(=O)NC(C(=O)N[C@H]2Cc3ccc(Cl)c(C(=O)O)c3OB2O)c2ccc(O)c(O)c2Cl)C(=O)C1=O` (stereo partly drawn) [Example 217, (3R)-7-chloro-3-(2-(2-chloro-3,4-dihydroxyphenyl)-2-(4-ethyl-2,3-dioxopiperazine-1-carboxamido)acetamido)-2-hydroxy-3,4-dihydro-2H-benzo[e][1,2]oxaborinine-8-carboxylic acid], the MIC in the experiment on A. baumannii ATCC 19606 (setting [2]) was 0.5 to 1 µg/mL; with P. aeruginosa PAO1 it was 2 to 4 µg/mL; in experiment [1], < 0.25 µg/mL; in the experiment with P. aeruginosa ATCC 35151 (setting [3]), < 0.25 µg/mL.

As usually defined, the EC50 is the concentration giving half of the maximal effect. A high value points to a less potent agent. `CCN1CCN(C(=O)NC(C(=O)N[C@H]2Cc3cccc(C(=O)[O-])c3OB2O)c2ccc[n+](CC(N)=O)c2)C(=O)C1=O` (stereo partly drawn) [Example 107, (3R)-3-(2-(1-(2-amino-2-oxoethyl)pyridin-1-ium-3-yl)-2-(4-ethyl-2,3-dioxopiperazine-1-carboxamido)acetamido)-2-hydroxy-3,4-dihydro-2H-benzo[e][1,2]oxaborinine-8-carboxylate]: the EC50 on E. coli PBP1b is > 100 µM.

With `CCN1CCN(C(=O)NC(C(=O)N[C@H]2Cc3ccc(Cl)c(C(=O)O)c3OB2O)c2ncc(O)cc2F)C(=O)C1=O` (stereo partly drawn) [Example 216, (3R)-7-chloro-3-(2-(4-ethyl-2,3-dioxopiperazine-1-carboxamido)-2-(3-fluoro-5-hydroxypyridin-2-yl)acetamido)-2-hydroxy-3,4-dihydro-2H-benzo[e][1,2]oxaborinine-8-carboxylic acid], the MIC was > 128 µg/mL with A. baumannii ATCC 19606 (setting [2]), > 128 µg/mL in the experiment on P. aeruginosa PAO1, 32 to 64 µg/mL in experiment [1] and < 0.25 µg/mL in the experiment with P. aeruginosa ATCC 35151 (setting [3]).

Take `NCCN1CCN(C(=O)N[C@@H](C(=O)N[C@H]2Cc3ccc(F)c(C(=O)O)c3OB2O)c2ccc(O)c(O)c2Cl)C(=O)C1=O` [Example 227, (R)-3-((R)-2-(4-(2-aminoethyl)-2,3-dioxopiperazine-1-carboxamido)-2-(2-chloro-3,4-dihydroxyphenyl)acetamido)-7-fluoro-2-hydroxy-3,4-dihydro-2H-benzo[e][1,2]oxaborinine-8-carboxylic acid]: the MIC (in the experiment on A. baumannii ATCC 19606 (setting [2]); in the experiment with P. aeruginosa PAO1; in experiment [1]; with P. aeruginosa ATCC 35151 (setting [3])) was < 0.25 µg/mL in each case.

Turning to `CCN1CCN(C(=O)NC(C(=O)N[C@H]2Cc3cccc(C(=O)O)c3OB2O)c2cccs2)C(=O)C1=O` (stereo partly drawn) [Example 115, (3R)-3-(2-(4-ethyl-2,3-dioxopiperazine-1-carboxamido)-2-(thiophen-2-yl)acetamido)-2-hydroxy-3,4-dihydro-2H-benzo[e][1,2]oxaborinine-8-carboxylic acid], the EC50 on E. coli PBP1b is > 100 µM.

For `CCN1CCN(C(=O)NC(C(=O)N[C@H]2Cc3cccc(C(=O)O)c3OB2O)c2ccc(S(N)(=O)=O)c(F)c2)C(=O)C1=O` (stereo partly drawn) [Example 210, (3R)-3-(2-(4-ethyl-2,3-dioxopiperazine-1-carboxamido)-2-(3-fluoro-4-sulfamoylphenyl)acetamido)-2-hydroxy-3,4-dihydro-2H-benzo[e][1,2]oxaborinine-8-carboxylic acid], the MIC in the experiment with A. baumannii ATCC 19606 (setting [2]) is > 128 µg/mL; with P. aeruginosa PAO1 it was > 128 µg/mL; in experiment [1] it was 2 to 4 µg/mL; in the experiment with P. aeruginosa ATCC 35151 (setting [3]), 0.5 to 1 µg/mL.

For `CCN1CCN(C(=O)NC(C(=O)N[C@H]2Cc3cccc(C(=O)O)c3OB2O)c2nc(N)sc2F)C(=O)C1=O` (stereo partly drawn) [Example 205, (3R)-3-(2-(2-amino-5-fluorothiazol-4-yl)-2-(4-ethyl-2,3-dioxopiperazine-1-carboxamido)acetamido)-2-hydroxy-3,4-dihydro-2H-benzo[e][1,2]oxaborinine-8-carboxylic acid], the MIC in the experiment with A. baumannii ATCC 19606 (setting [2]) was 32 to 64 µg/mL; in the experiment with P. aeruginosa PAO1, > 128 µg/mL; in experiment [1] it was 2 to 4 µg/mL; in the experiment with P. aeruginosa ATCC 35151 (setting [3]), < 0.25 µg/mL.

Take `NS(=O)(=O)c1ccc(C(NC(=O)N2CCN(CCF)C(=O)C2=O)C(=O)N[C@H]2Cc3ccc(F)c(C(=O)O)c3OB2O)cc1` (stereo partly drawn) [Example 182, (3R)-7-fluoro-3-(2-(4-(2-fluoroethyl)-2,3-dioxopiperazine-1-carboxamido)-2-(4-sulfamoylphenyl)acetamido)-2-hydroxy-3,4-dihydro-2H-benzo[e][1,2]oxaborinine-8-carboxylic acid]: the MIC is > 128 µg/mL in the experiment with A. baumannii ATCC 19606 (setting [2]), > 128 µg/mL with P. aeruginosa PAO1, 8 to 16 µg/mL in experiment [1] and 0.5 to 1 µg/mL with P. aeruginosa ATCC 35151 (setting [3]).

Consider `CCN1C[C@H](CCN)N(C(=O)NC(C(=O)N[C@H]2Cc3ccc(F)c(C(=O)O)c3OB2O)c2ccc(O)c(O)c2Cl)C(=O)C1=O` (stereo partly drawn) [Example 238, (3R)-3-(2-((S)-6-(2-aminoethyl)-4-ethyl-2,3-dioxopiperazine-1-carboxamido)-2-(2-chloro-3,4-dihydroxyphenyl)acetamido)-7-fluoro-2-hydroxy-3,4-dihydro-2H-benzo[e][1,2]oxaborinine-8-carboxylic acid], for which the MIC in the experiment with A. baumannii ATCC 19606 (setting [2]) is 0.5 to 1 µg/mL; in experiment [1], < 0.25 µg/mL; in the experiment with P. aeruginosa ATCC 35151 (ATCC35151, read-out: MIC P. aeruginosa ATCC 35151), < 0.25 µg/mL.

Turning to `CNCCN1CCN(C(=O)NC(C(=O)N[C@H]2Cc3cccc(C(=O)O)c3OB2O)c2ccc(O)c(O)c2Cl)C(=O)C1=O` (stereo partly drawn) [Example 239, (3R)-3-(2-(2-chloro-3,4-dihydroxyphenyl)-2-(4-(2-(methylamino)ethyl)-2,3-dioxopiperazine-1-carboxamido)acetamido)-2-hydroxy-3,4-dihydro-2H-benzo[e][1,2]oxaborinine-8-carboxylic acid], the MIC in the experiment with A. baumannii ATCC 19606 (setting [2]) was 0.5 to 1 µg/mL; in experiment [1], < 0.25 µg/mL; in the experiment with P. aeruginosa ATCC 35151 (setting [3]), < 0.25 µg/mL.

For the compound `CCN1C[C@H](CO)N(C(=O)NC(C(=O)N[C@H]2Cc3ccc(F)c(C(=O)O)c3OB2O)c2ccc(O)c(O)c2Cl)C(=O)C1=O` (stereo partly drawn) [Example 237, (3R)-3-(2-(2-chloro-3,4-dihydroxyphenyl)-2-((R)-4-ethyl-6-(hydroxymethyl)-2,3-dioxopiperazine-1-carboxamido)acetamido)-7-fluoro-2-hydroxy-3,4-dihydro-2H-benzo[e][1,2]oxaborinine-8-carboxylic acid], the MIC (in the experiment with A. baumannii ATCC 19606 (setting [2]); in experiment [1]; with P. aeruginosa ATCC 35151 (setting [3])) was < 0.25 µg/mL each time.

With `CCN1CCN(C(=O)NC(C(=O)N[C@H]2Cc3ccc(F)c(C(=O)O)c3OB2O)c2csc(N)n2)C(=O)C1=O` (stereo partly drawn) [Example 109, (3R)-3-(2-(2-aminothiazol-4-yl)-2-(4-ethyl-2,3-dioxopiperazine-1-carboxamido)acetamido)-7-fluoro-2-hydroxy-3,4-dihydro-2H-benzo[e][1,2]oxaborinine-8-carboxylic acid], the EC50 on E. coli PBP1b was > 100 µM.

`NCCCN1CCN(C(=O)N[C@@H](C(=O)N[C@H]2Cc3ccc(F)c(C(=O)O)c3OB2O)c2ccc(O)c(O)c2Cl)C(=O)C1=O` [Example 236, (R)-3-((R)-2-(4-(3-aminopropyl)-2,3-dioxopiperazine-1-carboxamido)-2-(2-chloro-3,4-dihydroxyphenyl)acetamido)-7-fluoro-2-hydroxy-3,4-dihydro-2H-benzo[e][1,2]oxaborinine-8-carboxylic acid]: the MIC (in the experiment on A. baumannii ATCC 19606 (setting [2]); in experiment [1]; in the experiment on P. aeruginosa ATCC 35151 (setting [3])) was < 0.25 µg/mL each time.

As to `CCN1CCN(C(=O)NC(C(=O)N[C@H]2Cc3cccc(C(=O)O)c3OB2O)c2cccc(N)n2)C(=O)C1=O` (stereo partly drawn) [Example 104, (3R)-3-(2-(6-aminopyridin-2-yl)-2-(4-ethyl-2,3-dioxopiperazine-1-carboxamido)acetamido)-2-hydroxy-3,4-dihydro-2H-benzo[e][1,2]oxaborinine-8-carboxylic acid], the EC50 on E. coli PBP1b was > 100 µM.

Consider `CCN1CCN(C(=O)NC(C(=O)N[C@H]2Cc3cccc(C(=O)O)c3OB2O)c2ccc(B(O)O)cc2)C(=O)C1=O` (stereo partly drawn) [Example 112], for which the EC50 at E. coli PBP1b is > 100 µM.

`CCNC(=O)NCCN1CCN(C(=O)NC(C(=O)N[C@H]2Cc3cccc(C(=O)O)c3OB2O)c2ccc(O)c(O)c2Cl)C(=O)C1=O` (stereo partly drawn) [Example 235, (3R)-3-(2-(2-chloro-3,4-dihydroxyphenyl)-2-(4-(2-(3-ethylureido)ethyl)-2,3-dioxopiperazine-1-carboxamido)acetamido)-2-hydroxy-3,4-dihydro-2H-benzo[e][1,2]oxaborinine-8-carboxylic acid]: the MIC is 0.5 to 1 µg/mL in the experiment with A. baumannii ATCC 19606 (setting [2]), < 0.25 µg/mL in experiment [1] and < 0.25 µg/mL in the experiment with P. aeruginosa ATCC 35151 (setting [3]).

With `NCCCN1CCN(C(=O)NC(C(=O)N[C@H]2Cc3cccc(C(=O)O)c3OB2O)c2ccc(O)c(O)c2Cl)C(=O)C1=O` (stereo partly drawn) [Example 233, (3R)-3-(2-(4-(3-aminopropyl)-2,3-dioxopiperazine-1-carboxamido)-2-(2-chloro-3,4-dihydroxyphenyl)acetamido)-2-hydroxy-3,4-dihydro-2H-benzo[e][1,2]oxaborinine-8-carboxylic acid], the MIC in the experiment with A. baumannii ATCC 19606 (setting [2]) was 2 to 4 µg/mL; in experiment [1], < 0.25 µg/mL; with P. aeruginosa ATCC 35151 (setting [3]), < 0.25 µg/mL.

`O=C(O)c1cccc2c1OB(O)[C@@H](NC(=O)C(NC(=O)N1CCN(CCF)C(=O)C1=O)c1ccc(B(O)O)cc1)C2` (stereo partly drawn) [Example 113, (3R)-3-(2-(4-boronophenyl)-2-(4-(2-fluoroethyl)-2,3-dioxopiperazine-1-carboxamido)acetamido)-2-hydroxy-3,4-dihydro-2H-benzo[e][1,2]oxaborinine-8-carboxylic acid]: the half-maximal effective concentration (EC50) at E. coli PBP1b was > 100 µM.

Regarding `CCN1C[C@H](CO)N(C(=O)NC(C(=O)N[C@H]2Cc3cccc(C(=O)O)c3OB2O)c2ncc(O)cc2F)C(=O)C1=O` (stereo partly drawn) [Example 234, (3R)-3-(2-((R)-4-ethyl-6-(hydroxymethyl)-2,3-dioxopiperazine-1-carboxamido)-2-(3-fluoro-5-hydroxypyridin-2-yl)acetamido)-2-hydroxy-3,4-dihydro-2H-benzo[e][1,2]oxaborinine-8-carboxylic acid], the MIC in the experiment with A. baumannii ATCC 19606 (ATCC19606, read-out: MIC A. baumannii ATCC 19606) was > 128 µg/mL; in experiment [1] it was 32 to 64 µg/mL; in the experiment on P. aeruginosa ATCC 35151 (setting [3]), 8 to 16 µg/mL.

These data come from patent US12173018B2, “Penicillin-binding protein inhibitors” (priority 2018, dated 2024).
